This note sets out measurements from patent US20230165884A1, “METHOD AND COMPOSITION FOR TREATING ALZHEIMERS” (Cognitive Synergy Corporation, priority 2021, published 2023).

One experiment deals with T1, Aβ1-42 protein (Homo sapiens, UniProt P05067).
T1 construct: aggregated amyloid beta 1-42 (Aβ1-42)
Put plainly: Percentage of Aβ1-42 protein fibrillization by ThT fluorescence (FIG. 18, 19). The experiment is classed as biochemical. More on the design: percentage of Aβ fibrillization compared to the control: unit of the concentration uncertain. The note with it: for effect on Aβ protein aggregation and/or tau protein accumulation: incubated with Aβ1-42 for 24 hours at 37° C. Here is the method: FIG. 18 is an analysis showing a percentage of Aβ1-42 protein fibrillization using thioflavin T (ThT) florescence in various samples. The sample on the left is a control of Aβ1-42 protein. […] The third sample from the left is Aβ protein treated with 10 mM Aconitine. And the fourth sample from the left is Aβ1-42 protein treated with 20 mM Aconitine.
FIG. 19 is an analysis showing an amount of Aβ1-42 protein fibrillization using thioflavin T (ThT) fluorescence in various samples. The sample on the left is a control of Aβ1-42 protein. The second sample from the left is Aβ1-42 protein treated with 200 mM of bergenin. The third sample from the left is Aβ1-42 protein treated with 300 mM bergenin.
The various compounds were incubated with Aβ1-42 for 24 hours at 37° C. to determine the effect of compounds on defibrillation. Further, testing was done to determine an effect of the compounds on tau protein.
Referring to FIG. 18, FIG. 18 is a bar graph 1800 showing a percentage of Aβ protein fibrillization in various samples. The sample on the left is a control 1805 of Aβ protein. […] The third sample 1815 from the left is Aβ protein treated with 10 mM aconitine. And the fourth sample 1820 from the left is Aβ protein treated with 20 mM aconitine.
The intensity for the control 1805 is normalized to 100.
The third sample 1815 includes a concentration of 10 mM aconitine. […] The fourth sample 1820 includes a concentration of 20 mM aconitine.
Referring to FIG. 19, FIG. 19 is a bar graph 1900 showing an amount of Aβ protein in various samples. The sample on the left is a control 1905 of Aβ protein. The second sample 1910 from the left is Aβ protein treated with 200 mM bergenin. The third sample 1915 from the left is Aβ protein treated with 300 mM bergenin.
The control 1905 on the left side of the bar graph 1900, which just contains Aβ protein is normalized to 100. The measurement of the percentage of the Aβ protein in the control 1905 that aggregates into Aβ fibrils is compared against solutions containing bergenin.
The second sample 1910 contains 200 mM bergenin. […] The third sample 1915 contained 300 mM bergenin.

In the next experiment the target is T2, Aβ (Homo sapiens, UniProt P05067).
T2 construct: aggregated amyloid beta 1-42 (Aβ1-42)
T2 sequence (P05067 672-713): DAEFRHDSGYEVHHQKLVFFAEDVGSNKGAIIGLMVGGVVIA
Put plainly: Fibrillization assay of various compositions (FIG. 28). The note with it: control 100% fibrillization. In kind it is biochemical. As to the method: (§1) Orientin, vitexin, and bergenin were detected as possible targets based on identification via Liquid Chromatography—mass Spectrometry (LC-MS) from Synaptecx-227 and verified via mass spectrometric (MS) analysis. Aβ1-42 defibrillation analysis and Aβ1-42 cell survival were performed for various combinations of the above identified targets.
The sample treated with a 20 micromolar concentration of orientin, 20 micromolar concentration of vitexin, and 50 micromolar concentration of bergenin decreased Aβ fibrillization by 48.9989% (p value<0.0001 ****).

Experiment [1] has as its system neurons with Aβ treatment. Put plainly: Cell survival assay of various compositions (FIG. 29). In kind it is cell-based. The conditions noted are these: Aβ control 61.7592%. As to the method:
as §1
In the control sample with Aβ treatment, the % of surviving neurons is 61.7592% (p value<0.0001 ****).

T1 sequence (P05067 672-713): as above

As for `CCN1C[C@]2(COC)[C@H](O)C[C@H](OC)[C@@]34[C@@H]5C[C@@]6(O)[C@H](OC(=O)c7ccccc7)[C@@H]5[C@@](OC(C)=O)([C@@H]([C@H](OC)[C@H]23)[C@@H]14)[C@@H](O)[C@@H]6OC` [aconitine], the entries for the “percentage of Aβ fibrillization compared to the control” value at Aβ1-42 protein (10 (unit uncertain)) and at Aβ1-42 protein (20 (unit uncertain)) were 82.0% and 74.8%, respectively. The “effect on Aβ protein aggregation and/or tau protein accumulation” value (“effect” below) on Aβ1-42 protein is given as “reducing a percentage of Aβ protein aggregation as compared to a control and/or reducing a percentage of tau protein accumulation as compared to a control”.
As to `O=C(N[C@@H](Cc1ccccc1)C(=O)N[C@H](CO)Cc1ccccc1)c1ccccc1` [aurantiamide], the “decrease of Aβ fibrillization” value on Aβ (20 micromolar) is given as 24.8578%. Besides, in experiment [1] (10 micromolar), the cell survival was found to be 71.5173%.
As for `COc1c(O)cc2c(c1O)[C@@H]1O[C@H](CO)[C@@H](O)[C@H](O)[C@H]1OC2=O` [bergenin], the “effect” value on Aβ1-42 protein was “reducing a percentage of Aβ protein aggregation as compared to a control and/or reducing a percentage of tau protein accumulation as compared to a control”. Moreover, the “decrease of Aβ fibrillization” value at Aβ (50 micromolar) is listed as 31.9532%. Also, the cell survival in experiment [1] (50 micromolar) was 76.2308%.
Take `O=c1cc(-c2ccc(O)c(O)c2)oc2c([C@@H]3O[C@H](CO)[C@@H](O)[C@H](O)[C@H]3O)c(O)cc(O)c12` [orientin]: the “decrease of Aβ fibrillization” value on Aβ (20 micromolar) was 29.2843%. Moreover, in experiment [1] (20 micromolar), the cell survival was found to be 77.8195%.
Turning to `O=c1cc(-c2ccc(O)cc2)oc2c([C@@H]3O[C@H](CO)[C@@H](O)[C@H](O)[C@H]3O)c(O)cc(O)c12` [vitexin], the “decrease of Aβ fibrillization” value at Aβ (20 micromolar) is 28.8579%. For the same molecule, the cell survival in experiment [1] (20 micromolar) turned out to be 73.4208%.
On to swatinine, for which the “effect” value at Aβ1-42 protein is on record as “reducing a percentage of Aβ protein aggregation as compared to a control and/or reducing a percentage of tau protein accumulation as compared to a control”.
